Counter-ions that a name gives are not always drawn.
Each compound was assayed against T1, Human Recombinant ROCK-II Enzyme (ROKα/ROCK-II, aa 11-552) (Homo sapiens, UniProt O75116) (assay: ROCK-II inhibition, fluorescence polarization assay (IMAP ROCK II kit)). Conditions: substrate 200 nM, ATP 10 μM, 60 min at 23° C., read-out: Enzyme Inhibition Constants (IC50) against Human Recombinant ROCK-II Enzyme.
T1 construct: (ROKα/ROCK-II, (aa 11-552), human active); purchased Upstate Biotechnology Co., Lake Placid, N.Y. 14-451
Assay type: biochemical
Procedure: The ability of certain compounds of Formula (I) to inhibit rho kinase was evaluated by means of in vitro assays. Human recombinant Rho kinase (ROKα/ROCK-II, (aa 11-552), human active, catalog #14-451, Upstate Biotechnology Co., Lake Placid, N.Y.), MgCl2/ATP cocktail, and enzyme substrate (Upstate) are used.
The fluorescence polarization assays are performed using a Biomek 2000 Robotic Workstation (Beckman Instruments, Palo Alto, Calif.) in a 96-well plate format. The assays are performed utilizing the IMAP ROCK II kit (Molecular Devices, Sunnyvale, Calif.) as follows. Substrate and ATP concentrations used are 200 nM and 10 μM, respectively, while the enzyme concentration is 3.96×10^−3 units per well. The substrate, enzyme, and ATP dilutions are made with the reaction buffer provided by the vendor. Test compounds are diluted in 10:10 DMSO-ethanol (vol/vol). For the actual assays, the various components are added into black, clear bottom, 96-well plates (Costar, Corning, N.Y.) in a final volume of 20 μl per well. After the enzyme reaction (60 min at 23° C.), 60 μl of the binding solution (IMAP kit, provided by vendor) is added per well and incubated for an additional 30 minutes in the dark at 23° C. Fluorescence polarization of the reaction mixtures is then measured on the Analyst™ HT instrument (Molecular Devices, Sunnyvale, Calif.).
The data generated are then analyzed using a non-linear, iterative, sigmoidal-fit computer program purchased from IDBS (Emeryville, Calif.) and as previously described (Sharif et al., J. Pharmacol. Exp. Ther. 286:1094-1102, 1998; Sharif et al., J. Pharmacol. Expt. Ther. 293:321-328, 2000; Sharif et al., J. Ocular Pharmacol. Ther. 18:141-162, 2002a; Sharif et al., J. Pharmac. Pharmacol. 54:539-547, 2002b) to generate the inhibition constants for the test compounds.

T1 sequence (O75116 11-552): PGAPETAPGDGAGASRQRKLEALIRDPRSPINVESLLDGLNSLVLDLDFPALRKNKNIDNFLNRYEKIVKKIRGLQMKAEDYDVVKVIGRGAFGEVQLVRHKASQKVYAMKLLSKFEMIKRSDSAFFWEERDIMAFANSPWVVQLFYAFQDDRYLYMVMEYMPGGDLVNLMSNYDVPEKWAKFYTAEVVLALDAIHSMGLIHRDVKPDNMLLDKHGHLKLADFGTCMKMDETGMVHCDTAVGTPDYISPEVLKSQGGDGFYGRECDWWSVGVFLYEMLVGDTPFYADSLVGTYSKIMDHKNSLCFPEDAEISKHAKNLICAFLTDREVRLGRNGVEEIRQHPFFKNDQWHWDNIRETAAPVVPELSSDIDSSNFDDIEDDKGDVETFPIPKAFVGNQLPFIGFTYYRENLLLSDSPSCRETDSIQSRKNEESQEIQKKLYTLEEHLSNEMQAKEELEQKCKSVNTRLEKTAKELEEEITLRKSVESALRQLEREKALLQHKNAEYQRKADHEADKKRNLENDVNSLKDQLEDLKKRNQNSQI

Row | IC50 | Compound
1 | 0.084 nM | c1cc(-c2cnc(N3CCCC3)c(OC3CCNCC3)n2)ccn1 [Example 46, 3-(Piperidin-4-yloxy)-5-(pyridin-4-yl)-2-(pyrrolidin-1-yl)pyrazine]
2 | 5.5 nM | CN1CCCC(Nc2nc(-c3ccncc3)cnc2N)C1 (stereo not shown) [Example 15, N,N-(1-Methylpiperidin-3-yl)-6-(pyridin-4-yl)pyrazine-2,3-diamine]
3 | 0.21 nM | Nc1ncc(-c2ccncc2)nc1NC1CCCNC1 (stereo not shown) [Example 17, N,N-(Piperidin-3-yl)-6-(pyridin-4-yl)pyrazine-2,3-diamine]
4 | 1.1 nM | Nc1ncc(-c2ccncc2)nc1OC1CCNCC1 [Example 22, 3-(Piperidin-4-yloxy)-5-(pyridin-4-yl)pyrazin-2-amine]
5 | 3 nM | CN1CCCN(c2nc(-c3ccncc3)cnc2N)CC1 [Example 1, 3-(4-Methyl-1,4-diazepan-1-yl)-5-(pyridin-4-yl)pyrazin-2-amine]
6 | 0.3 nM | CN(C)c1ncc(-c2ccncc2)nc1N1CCN(CCO)CC1 [Example 30, 2-(4-(3-(Dimethylamino)-6-(pyridin-4-yl)pyrazin-2-yl)piperazin-1-yl)ethanol hydrochloride]
7 | 0.3 nM | c1cc(-c2cnc(N3CCCCC3)c(NC3CCCNC3)n2)ccn1 (stereo not shown) [Example 49, 3-(Piperidin-1-yl)-N-(piperidin-3-yl)-6-(pyridin-4-yl)pyrazin-2-amine]
8 | 1.7 nM | Nc1ncc(-c2ccncc2)nc1N1CCN(CCCO)CC1 [Example 24, 3-(4-(3-Amino-6-(pyridin-4-yl)pyrazin-2-yl)piperazin-1-yl)propan-1-ol]
9 | 0.11 nM | Cc1n[nH]c2ccc(-c3cnc(N4CCCC4)c(N4CCCNCC4)n3)cc12 [Example 43, 5-(6-(1,4-Diazepan-1-yl)-5-(pyrrolidin-1-yl)pyrazin-2-yl)-3-methyl-1H-indazole hydrochloride]
10 | 0.02 nM | CN1CCCN(c2nc(-c3ccncc3)cnc2N2CCCCCC2)CC1 [Example 50, 1-(3-(Azepan-1-yl)-6-(pyridin-4-yl)pyrazin-2-yl)-4-methyl-1,4-diazepane hydrochloride]
